Assay results published in ChEMBL document CHEMBL1132886, “Syntheses and properties of photoactivatable sugar derivatives designed to probe the sugar-binding site of melibiose permease” (Bioorg Med Chem Lett, 2000).

Experiments:
[1] = Binding affinity against melibiose permease ofEscherichia coli; design: species or system Escherichia coli
[2] = Binding affinity against melibiose permease of Escherichia coli

Structure (SMILES) | Kd [1] [nM] | Kd [2] [nM]
N#[N+]c1ccc(OC2O[C@H](CO)[C@@H](O)[C@H](O)[C@H]2O)cc1 (some centres undefined) | 60000 | 
OC[C@H]1OC(Oc2ccc(C3(C(F)(F)F)N=N3)cc2)[C@H](O)[C@@H](O)[C@@H]1O (some centres undefined) | 2000 | 
O=[N+]([O-])c1ccc(O[C@H]2O[C@H](CO)[C@@H](O)[C@H](O)[C@H]2O)cc1 |  | 600
[N-]=[N+]=Nc1ccc(OC2O[C@H](CO)[C@@H](O)[C@H](O)[C@H]2O)cc1 (some centres undefined) | 1000 | 
